PMC10166890, “Screening for DAX1/EWS‐FLI1 functional inhibitors identified dihydroorotate dehydrogenase as a therapeutic target for Ewing's sarcoma” (Cancer Medicine, 2023)
Entries after “also recorded” stand apart in the source; their conditions may differ.

Tests used:
[1] = test system: A‐673 cells; assay: Cell viability assay (XTT), A‐673 cells; type: cell-based, human
Method: (§1) AsPC‐1, A‐673, and TC‐71 cells were seeded in 96‐well plates (800 cells/well for AsPC‐1, 2000 cells/well for A‐673, and 400 cells/well for TC‐71) and cultured overnight. Vehicle (DMSO) or a test compound diluted with the medium was then added to the wells (final DMSO concentration was 0.3%), and 72 h later, 2,3‐bis[2‐methoxy‐4‐nitro‐5‐sulfophenynl]‐2H‐tetrazolium‐5‐carboxanilide inner salt (XTT) reagent (Roche Diagnostics, Mannheim, Germany) was added to the medium. After 3‐h incubation at 37°C, the formation of the formazan dye was determined by measuring absorbance at 490 and 650 nm using a SpectraMax 340PC system (Molecular Devices, Sunnyvale, CA, USA).

[2] = test system: TC‐71 cells; assay: Cell viability assay (XTT), TC‐71 cells; type: cell-based, human; details: 72 h
Method: as §1

[3] = target: T1, DHODH (Homo sapiens, UniProt Q02127); assay: DHODH inhibition assay, A‐673 mitochondria fraction (orotic acid production, LCMSMS); type: biochemical; details: read-out: IC50 for orotic acid production through DHODH
T1 construct: The mitochondria fraction was isolated from A‐673 cells using Q proteome Mitochondria Isolation kit; endogenous in cells; host or cells: A-673 cells, mitochondria fraction
T1 sequence (Q02127 whole entry): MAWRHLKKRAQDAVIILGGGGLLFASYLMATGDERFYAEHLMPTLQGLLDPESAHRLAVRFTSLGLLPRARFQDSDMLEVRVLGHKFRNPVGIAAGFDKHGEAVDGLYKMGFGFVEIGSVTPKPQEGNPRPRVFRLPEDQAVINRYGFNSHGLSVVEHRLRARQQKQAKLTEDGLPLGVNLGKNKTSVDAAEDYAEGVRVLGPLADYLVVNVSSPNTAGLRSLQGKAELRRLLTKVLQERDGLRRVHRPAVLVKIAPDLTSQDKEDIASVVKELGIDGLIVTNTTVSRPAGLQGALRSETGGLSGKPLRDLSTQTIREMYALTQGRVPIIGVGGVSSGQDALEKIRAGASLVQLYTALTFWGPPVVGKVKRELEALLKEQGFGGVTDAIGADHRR
Method: The mitochondria fraction was isolated from A‐673 cells using Q proteome Mitochondria Isolation kit (QIAGEN, Hilden, Germany). The protein concentration of the fraction was determined using the DC‐protein assay kit (Bio‐Rad Laboratories, Hercules, CA, USA) with bovine serum albumin (Sigma‐Aldrich) as the standard. […] The reaction was quenched by adding 120 μL of 3 μM 5‐fluoroorotic acid acetonitrile solution. These samples were then centrifuged at 5000 g for 5 min to precipitate proteins, and the supernatant was collected. The samples were diluted 10‐fold with 70% acetonitrile‐water and subjected to liquid chromatography with tandem mass spectrometry (LCMSMS). The analyte was then separated on a hydrophilic interaction chromatography column (PC‐HILIC; 5 μm, 4.6 mm I.D. × 50 mm; Osaka Soda, Osaka, Japan). LCMSMS detection was performed by electrospray ionization in negative ion mode.

[4] = target: T2, DHODH (Mus musculus, UniProt O35435); assay: DHODH inhibition with mouse liver mitochondria; type: biochemical
T2 construct: IC50 value for the mouse liver mitochondrial fraction; from tissue; host or cells: mouse liver mitochondria
T2 sequence (O35435 whole entry): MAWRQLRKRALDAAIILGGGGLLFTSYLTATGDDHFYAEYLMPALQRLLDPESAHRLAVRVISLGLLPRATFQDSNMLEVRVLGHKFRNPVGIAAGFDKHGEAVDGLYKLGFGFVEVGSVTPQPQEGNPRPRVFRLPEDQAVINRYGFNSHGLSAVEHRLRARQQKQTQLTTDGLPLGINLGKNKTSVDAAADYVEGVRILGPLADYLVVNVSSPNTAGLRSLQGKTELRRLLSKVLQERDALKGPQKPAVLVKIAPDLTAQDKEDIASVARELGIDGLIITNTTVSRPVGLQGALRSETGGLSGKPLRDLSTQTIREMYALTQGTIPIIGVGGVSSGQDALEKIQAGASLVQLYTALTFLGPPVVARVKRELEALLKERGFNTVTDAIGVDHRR

[5] = test system: A‐673 cell‐derived tumors; assay: A‐673 xenograft in SCID mice; type: in vivo, mouse
Method: All animal studies were performed in accordance with Standards for Proper Conduct sof Animal Experiments at Kyowa Kirin Co., Ltd., under the approval of the company's Institutional Animal Care and Use Committee. Male C.B17/Icr‐scid/scidJcl (SCID) mice (5 weeks old) were purchased from CREA Japan (Tokyo, Japan). K‐733 was suspended in 0.5% (w/v) methylcellulose 400 (MC400; FUJIFILM Wako Pure Chemical) and orally administered to mice once daily. Ewing's cells were suspended in Dulbecco's phosphate‐buffered saline (DPBS; Thermo Fisher Scientific, Waltham, MA, USA) and injected subcutaneously into the ventral side of mice at 5 × 10^6 cells/0.1 mL/mouse for A‐673 and TC‐71 and 1 × 10^7 cells/0.1 mL/mouse for CADO‐ES1 and SK‐ES‐1. In experiments using TC‐71 cells, 0.3 mg of anti‐asialo GM1 antibody (FUJIFILM Wako Pure Chemical) was injected intraperitoneally 1 day before TC‐71 injection. The tumor size and body weight were measured every 3 or 4 days. The tumor volume was calculated using the following equation: Tumor volumemm^3=DL×DS×DS×1/2, where DL and DS represent the long diameter and short diameter, respectively. The pharmacokinetic analysis of K‐733 is described in Materials and Methods S2.

[6] = Plasma concentration‐time profile after single oral administration; type: in vivo, mouse; details: BALB/c mice
Method: First, we evaluated the plasma concentration‐time profile of K‐733 after single oral administration at dose ranges from 1 to 100 mg/kg in BALB/c mice (donors of SCID mice) for dose selection (Figure 8A). […] Therefore, we selected dose ranges from 10 to 100 mg/kg for in vivo studies.
Male BALB/cAnNCrlCrlj mice (6 weeks old) were purchased from Jackson Laboratories Japan (Yokohama, Japan). K-733, suspended in 0.5% (w/v) MC400 was orally administered at 1, 3, 10, and 100 mg/kg (n=2), and blood samples were collected from the tail vein at 0.5, 1, 2, 4, 7 and 24 h after administration. Mice were euthanized with carbon dioxide inhalation after the final blood sampling. Plasma was separated and stored frozen until use. The plasma concentration of K-733 was determined by liquid chromatography with tandem mass spectrometry (LC-MS). Plasma samples were pre-treated for protein precipitation, and the supernatant was subjected to liquid LC-MS. The analyte was separated on a C18 reverse-phase column (CAPCELL PAK C18 MG 3 μm, 3 mm I.D. × 35 mm; Osaka Soda). LC-MS detection was performed by electrospray ionization in a positive ion mode. The detected mass-to-charge ratio of K-733 was 482.95/92.75 (Q1/Q3). The lower limit of quantification (LLOQ) was 10 nM.

Cc1nc(-c2ccc(C3c4[nH]c5ccc(Cl)cc5c4CCN3C(=O)Oc3ccccc3)cc2)no1 (stereo not shown) [K-733, phenyl 6‐chloro‐1‐(4‐(5‐methyl‐1,2,4‐oxadiazol‐3‐yl)phenyl)‐1,3,4,9‐tetrahydro‐2H‐pyrido[3,4‐b]indole‐2‐carboxylate]
Cell viability of A‐673 cells ([1]; 72 h): decreased the viability | GI50 ([1]; Homo sapiens, A673, 50% growth inhibition concentration, A‐673 cells): 6.11 nM | Cell viability of TC‐71 cells [2]: decreased the viability | IC50 [3]: 0.953 nM | IC50 [4]: 120 nM | Treatment per control ratio (T/C), greatest change ([5]; 100 mg/kg orally once daily, A‐673 tumors): 0.38 | Tumor volume, A‐673 xenograft ([5]; 10, 30, or 100 mg/kg orally once daily up to 14 days): reduced; also recorded: inhibited tumor growth | Body weight ([5]; A‐673‐bearing mice, up to 100 mg/kg orally once daily): without a body weight loss; also recorded: without affecting body weight gain | Plasma concentration, dose dependence ([6]; single oral 1 to 100 mg/kg): increased dose‐dependently | Plasma concentration relative to IC50 (DAX1 reporter and DHODH inhibition) ([6]; single oral ≥10 mg/kg): higher than the IC50 value
